Experimental data: ChEMBL document CHEMBL1135130, “Substituted tetrahydrofuroyl-1-phenylalanine derivatives as potent and specific VLA-4 antagonists” (Bioorg Med Chem Lett, 2002)

How the values were obtained:
[1] = target: T1, Integrin alpha-4/beta-7 (Homo sapiens, UniProt P13612+P26010); assay: Inhibition of alpha4-beta7 antigen with MAdCAM immunoglobulin; type: protein-complex assay
T1 sequence (P13612 whole entry): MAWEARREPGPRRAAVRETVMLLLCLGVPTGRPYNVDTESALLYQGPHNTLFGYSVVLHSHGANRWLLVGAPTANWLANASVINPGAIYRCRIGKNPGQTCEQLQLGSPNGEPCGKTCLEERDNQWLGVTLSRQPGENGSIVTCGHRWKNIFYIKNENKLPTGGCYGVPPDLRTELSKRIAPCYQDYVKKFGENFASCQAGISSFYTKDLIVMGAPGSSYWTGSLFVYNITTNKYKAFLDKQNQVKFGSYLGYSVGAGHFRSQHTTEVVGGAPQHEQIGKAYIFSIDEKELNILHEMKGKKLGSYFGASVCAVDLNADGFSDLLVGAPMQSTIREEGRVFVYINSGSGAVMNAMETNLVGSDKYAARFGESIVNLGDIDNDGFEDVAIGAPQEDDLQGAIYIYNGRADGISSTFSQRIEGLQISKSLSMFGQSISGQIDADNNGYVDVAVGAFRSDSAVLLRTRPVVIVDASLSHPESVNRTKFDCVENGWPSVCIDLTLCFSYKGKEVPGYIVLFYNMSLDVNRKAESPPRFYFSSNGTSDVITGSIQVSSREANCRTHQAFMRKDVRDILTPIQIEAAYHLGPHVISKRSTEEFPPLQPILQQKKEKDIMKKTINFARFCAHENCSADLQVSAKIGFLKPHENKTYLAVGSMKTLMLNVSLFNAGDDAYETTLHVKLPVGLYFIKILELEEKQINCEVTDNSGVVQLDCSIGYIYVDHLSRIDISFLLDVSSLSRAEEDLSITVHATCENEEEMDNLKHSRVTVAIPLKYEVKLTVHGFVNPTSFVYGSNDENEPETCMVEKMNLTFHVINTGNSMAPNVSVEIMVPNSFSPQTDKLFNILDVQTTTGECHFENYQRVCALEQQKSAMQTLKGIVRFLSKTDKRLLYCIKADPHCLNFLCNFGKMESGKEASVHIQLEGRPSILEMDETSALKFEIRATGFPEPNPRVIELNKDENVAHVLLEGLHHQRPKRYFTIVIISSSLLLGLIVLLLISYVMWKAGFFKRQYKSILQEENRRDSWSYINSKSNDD
T1 sequence (P26010 whole entry): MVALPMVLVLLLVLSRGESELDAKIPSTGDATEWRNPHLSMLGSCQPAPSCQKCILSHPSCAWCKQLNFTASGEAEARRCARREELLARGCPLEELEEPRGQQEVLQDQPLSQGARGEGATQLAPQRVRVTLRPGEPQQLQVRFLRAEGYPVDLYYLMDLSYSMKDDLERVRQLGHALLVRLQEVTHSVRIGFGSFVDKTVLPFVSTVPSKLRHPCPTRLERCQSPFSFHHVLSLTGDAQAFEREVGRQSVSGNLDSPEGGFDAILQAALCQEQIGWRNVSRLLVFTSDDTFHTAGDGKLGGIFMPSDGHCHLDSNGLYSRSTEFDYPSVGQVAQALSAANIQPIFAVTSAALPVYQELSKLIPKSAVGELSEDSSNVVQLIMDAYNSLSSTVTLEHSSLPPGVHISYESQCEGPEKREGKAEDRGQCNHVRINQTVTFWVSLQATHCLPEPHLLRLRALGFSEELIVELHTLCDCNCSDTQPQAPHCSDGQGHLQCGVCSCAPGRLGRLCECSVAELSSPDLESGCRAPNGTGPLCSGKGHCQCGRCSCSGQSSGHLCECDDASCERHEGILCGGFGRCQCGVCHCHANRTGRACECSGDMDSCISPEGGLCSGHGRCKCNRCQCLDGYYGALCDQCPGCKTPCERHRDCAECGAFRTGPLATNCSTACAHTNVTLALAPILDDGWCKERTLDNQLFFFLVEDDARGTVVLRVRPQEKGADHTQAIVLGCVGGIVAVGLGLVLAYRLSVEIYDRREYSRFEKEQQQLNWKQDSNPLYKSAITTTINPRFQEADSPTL

[2] = target: Integrin alpha-4/beta-7 (Homo sapiens) (UniProt P13612+P26010); assay: Selectivity for alpha4-beta7 to that of alpha4-beta1; type: protein-complex assay
[3] = target: T2, Integrin alpha-4/beta-1 (Homo sapiens, UniProt P05556+P13612); assay: Inhibition of alpha4-beta1 (very late) antigen binding with VCAM-1 immunoglobulin; type: protein-complex assay
T2 sequence (P05556 whole entry, one chain of several): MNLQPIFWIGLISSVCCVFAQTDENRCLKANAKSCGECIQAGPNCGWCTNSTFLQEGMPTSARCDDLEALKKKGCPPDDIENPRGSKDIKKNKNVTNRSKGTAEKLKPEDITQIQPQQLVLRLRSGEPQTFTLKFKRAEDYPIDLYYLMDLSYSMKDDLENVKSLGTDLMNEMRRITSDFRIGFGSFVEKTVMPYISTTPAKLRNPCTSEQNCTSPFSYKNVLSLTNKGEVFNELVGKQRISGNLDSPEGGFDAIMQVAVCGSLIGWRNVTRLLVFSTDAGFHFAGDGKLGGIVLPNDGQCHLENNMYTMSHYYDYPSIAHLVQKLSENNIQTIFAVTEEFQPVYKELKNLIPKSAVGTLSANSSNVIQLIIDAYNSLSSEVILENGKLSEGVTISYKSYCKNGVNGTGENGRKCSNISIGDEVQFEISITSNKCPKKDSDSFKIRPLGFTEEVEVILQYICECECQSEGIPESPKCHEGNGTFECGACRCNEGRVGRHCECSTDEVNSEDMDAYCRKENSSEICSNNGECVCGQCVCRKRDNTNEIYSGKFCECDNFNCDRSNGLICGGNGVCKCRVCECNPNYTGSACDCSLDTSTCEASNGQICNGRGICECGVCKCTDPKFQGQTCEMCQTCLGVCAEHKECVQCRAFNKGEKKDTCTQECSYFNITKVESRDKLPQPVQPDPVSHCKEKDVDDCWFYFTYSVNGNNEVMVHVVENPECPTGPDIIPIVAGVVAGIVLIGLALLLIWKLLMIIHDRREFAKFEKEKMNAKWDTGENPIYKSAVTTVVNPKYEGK

[4] = target: T2, Integrin alpha-4/beta-1; assay: Inhibition of alpha4-beta1 (very late) antigen binding with VCAM-1 immunoglobulin plus 5% human plasma; type: cell-free

SMILES	IC50 [1] [nM]	Ratio [2]	IC50 [3] [nM]	IC50 [4] [nM]
COc1cccc(OC)c1-c1ccc(C[C@H](NC(=O)[C@@]2(CC(C)C)CCCO2)C(=O)O)cc1	22.3	19	1.15	4.02
COc1ccccc1-c1ccc(C[C@H](NC(=O)[C@@]2(c3ccc(C(F)(F)F)cc3)CCCO2)C(=O)O)cc1	504	95	5.31	120
COc1cccc(OC)c1-c1ccc(C[C@H](NC(=O)[C@@]2(C(=O)C(C)C)CCCO2)C(=O)O)cc1	11.2	22	0.67	
COc1cccc(OC)c1-c1ccc(C[C@H](NC(=O)[C@@]2(CCO)CCCO2)C(=O)O)cc1	16.3	10	1.56	7.59
COc1ccccc1-c1ccc(C[C@H](NC(=O)[C@@]2(c3cccc(C(F)(F)F)c3)CCCO2)C(=O)O)cc1	327	70	4.65	290
COc1ccccc1-c1ccc(C[C@H](NC(=O)[C@@]2(c3ccc(C(C)(C)C)cc3)CCCO2)C(=O)O)cc1	99.5	55	1.8	29
CCOC(=O)[C@]1(C(=O)N[C@@H](Cc2ccc(-c3ccccc3OC)cc2)C(=O)O)CCCO1	51.1	13	4.06	19
COc1ccccc1-c1ccc(C[C@H](NC(=O)[C@@]2(c3ccc(F)cc3)CCCO2)C(=O)O)cc1	45.7	11	4.3	48
COc1ccc(CNC2CC(C)O[C@@]2(C)C(=O)N[C@@H](Cc2ccc(-c3c(OC)cccc3OC)cc2)C(=O)O)cc1 (some centres undefined)	733	225	3.4	14.9
COCC[C@]1(C(=O)N[C@@H](Cc2ccc(-c3c(OC)cccc3OC)cc2)C(=O)O)CCCO1	16.1	40	0.7	1.99
COc1cccc(OC)c1-c1ccc(C[C@H](NC(=O)[C@]2(C)OC(C)CC2N)C(=O)O)cc1 (some centres undefined)	149	57	2.6	
COCCCC[C@]1(C(=O)N[C@@H](Cc2ccc(-c3c(OC)cccc3OC)cc2)C(=O)O)CCCO1	22	35	0.62	1.27
COc1cccc(OC)c1-c1ccc(C[C@H](NC(=O)[C@@]2(CCCCO)CCCO2)C(=O)O)cc1	245	1	255	870
COc1ccccc1-c1ccc(C[C@H](NC(=O)[C@@]2(C(=O)N3CCOCC3)CCCO2)C(=O)O)cc1	8.49	16	0.54	1
COc1cccc(OC)c1-c1ccc(C[C@H](NC(=O)[C@@]2(c3cccc([N+](=O)[O-])c3)CCCO2)C(=O)O)cc1	19.6	85	0.23	0.95
COc1ccccc1-c1ccc(C[C@H](NC(=O)[C@@]2(c3cc(C(F)(F)F)cc(C(F)(F)F)c3)CCCO2)C(=O)O)cc1	499	108	4.62	1100
COc1cccc(OC)c1-c1ccc(C[C@H](NC(=O)[C@@]2(c3ncc(C)s3)CCCO2)C(=O)O)cc1	14.5	47	0.31	
COc1ccccc1-c1ccc(C[C@H](NC(=O)[C@@]2(c3ccc(Br)cc3)CCCO2)C(=O)O)cc1	232	64	3.62	53
COc1cccc(OC)c1-c1ccc(C[C@H](NC(=O)[C@@]2(CCCCN(C)C)CCCO2)C(=O)O)cc1	226	14	16.3	22.9
COc1cccc(OC)c1-c1ccc(C[C@H](NC(=O)[C@@]2(CCCN(C)C)CCCO2)C(=O)O)cc1	67	7	9.18	
COc1ccccc1-c1ccc(C[C@H](NC(=O)[C@@]2(C(=O)N3CCCC3)CCCO2)C(=O)O)cc1	22.9	17	1.33	4.42
COc1cc(OC)cc([C@]2(C(=O)N[C@@H](Cc3ccc(-c4c(OC)cccc4OC)cc3)C(=O)O)CCCO2)c1			1.48	5.77
COc1cccc(OC)c1-c1ccc(C[C@H](NC(=O)[C@@]2(c3ccc(Cl)c([N+](=O)[O-])c3)CCCO2)C(=O)O)cc1	45.6	97	0.47	2.41
COc1cccc(OC)c1-c1ccc(C[C@H](NC(=O)[C@@]2(C(C)C)CCCO2)C(=O)O)cc1	6.1	9	0.7	7.46
COc1ccccc1-c1ccc(C[C@H](NC(=O)[C@@]2(C(=O)N3CCN(C)CC3)CCCO2)C(=O)O)cc1	23.2	39	0.59	1
COc1cccc(OC)c1-c1ccc(C[C@H](NC(=O)[C@@]2(c3ccc(Cl)cc3)CCCO2)C(=O)O)cc1	52.2	95	0.55	4.75
COc1ccccc1-c1ccc(C[C@H](NC(=O)[C@@]2(c3ccccc3)CCCO2)C(=O)O)cc1	56.4	26	2.2	
COc1cccc(OC)c1-c1ccc(C[C@H](NC(=O)[C@@]2(c3cccc(N)c3)CCCO2)C(=O)O)cc1	26.6	29	0.92	5.63
COc1cccc(OC)c1-c1ccc(C[C@H](NC(=O)[C@]2(C)OC(C)CC2=O)C(=O)O)cc1 (some centres undefined)	24.5	35	0.7	1.32
